Measurements taken from ChEMBL document CHEMBL3991601, “The target landscape of clinical kinase drugs” (Science, 2017).
pKd: −log10 of the molar value. Activity calls are given as the source filed them.

What was measured:
[1] = target: T1, STE20-related kinase adapter protein alpha (Homo sapiens, UniProt Q7RTN6)
T1 sequence (Q7RTN6 whole entry): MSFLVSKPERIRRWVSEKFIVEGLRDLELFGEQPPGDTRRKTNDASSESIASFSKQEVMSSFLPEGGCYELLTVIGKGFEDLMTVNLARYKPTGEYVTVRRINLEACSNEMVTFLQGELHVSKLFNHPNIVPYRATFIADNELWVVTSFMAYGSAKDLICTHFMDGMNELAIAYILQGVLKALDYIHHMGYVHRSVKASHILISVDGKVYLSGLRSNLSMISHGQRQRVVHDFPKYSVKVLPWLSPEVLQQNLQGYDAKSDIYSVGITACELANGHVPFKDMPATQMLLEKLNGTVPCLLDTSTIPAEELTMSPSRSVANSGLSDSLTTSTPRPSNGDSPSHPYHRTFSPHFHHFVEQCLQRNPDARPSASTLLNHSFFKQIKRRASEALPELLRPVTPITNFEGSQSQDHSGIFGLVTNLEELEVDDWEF

[2] = target: T2, DNA replication licensing factor MCM4 (Homo sapiens, UniProt P33991)
T2 sequence (P33991 whole entry): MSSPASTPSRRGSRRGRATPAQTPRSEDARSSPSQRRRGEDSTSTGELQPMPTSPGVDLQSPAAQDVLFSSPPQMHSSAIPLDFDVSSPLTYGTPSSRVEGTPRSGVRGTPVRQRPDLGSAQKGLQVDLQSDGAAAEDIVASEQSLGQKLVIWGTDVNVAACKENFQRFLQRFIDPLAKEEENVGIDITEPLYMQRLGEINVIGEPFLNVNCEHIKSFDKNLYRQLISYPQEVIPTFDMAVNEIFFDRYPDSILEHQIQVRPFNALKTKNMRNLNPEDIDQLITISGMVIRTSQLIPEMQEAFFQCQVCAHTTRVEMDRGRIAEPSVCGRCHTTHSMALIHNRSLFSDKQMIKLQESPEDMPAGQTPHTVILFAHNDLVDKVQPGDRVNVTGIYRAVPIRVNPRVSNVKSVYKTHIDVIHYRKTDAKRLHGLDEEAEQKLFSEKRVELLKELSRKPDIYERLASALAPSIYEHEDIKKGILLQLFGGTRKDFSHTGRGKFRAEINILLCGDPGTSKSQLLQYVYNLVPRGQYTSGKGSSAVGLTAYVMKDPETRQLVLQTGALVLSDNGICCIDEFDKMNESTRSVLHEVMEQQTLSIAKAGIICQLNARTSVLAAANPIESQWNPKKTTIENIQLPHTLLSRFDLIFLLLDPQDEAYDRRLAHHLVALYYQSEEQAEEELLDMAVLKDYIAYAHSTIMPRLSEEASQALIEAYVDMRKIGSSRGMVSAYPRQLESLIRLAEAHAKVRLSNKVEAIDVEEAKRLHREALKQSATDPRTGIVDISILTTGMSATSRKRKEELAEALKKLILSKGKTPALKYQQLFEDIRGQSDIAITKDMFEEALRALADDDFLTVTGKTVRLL

[3] = target: Fibroblast growth factor receptor 1 (Homo sapiens, UniProt P11362)
[4] = target: T3, Mitogen-activated protein kinase kinase kinase kinase 2 (Homo sapiens, UniProt Q12851)
T3 sequence (Q12851 whole entry): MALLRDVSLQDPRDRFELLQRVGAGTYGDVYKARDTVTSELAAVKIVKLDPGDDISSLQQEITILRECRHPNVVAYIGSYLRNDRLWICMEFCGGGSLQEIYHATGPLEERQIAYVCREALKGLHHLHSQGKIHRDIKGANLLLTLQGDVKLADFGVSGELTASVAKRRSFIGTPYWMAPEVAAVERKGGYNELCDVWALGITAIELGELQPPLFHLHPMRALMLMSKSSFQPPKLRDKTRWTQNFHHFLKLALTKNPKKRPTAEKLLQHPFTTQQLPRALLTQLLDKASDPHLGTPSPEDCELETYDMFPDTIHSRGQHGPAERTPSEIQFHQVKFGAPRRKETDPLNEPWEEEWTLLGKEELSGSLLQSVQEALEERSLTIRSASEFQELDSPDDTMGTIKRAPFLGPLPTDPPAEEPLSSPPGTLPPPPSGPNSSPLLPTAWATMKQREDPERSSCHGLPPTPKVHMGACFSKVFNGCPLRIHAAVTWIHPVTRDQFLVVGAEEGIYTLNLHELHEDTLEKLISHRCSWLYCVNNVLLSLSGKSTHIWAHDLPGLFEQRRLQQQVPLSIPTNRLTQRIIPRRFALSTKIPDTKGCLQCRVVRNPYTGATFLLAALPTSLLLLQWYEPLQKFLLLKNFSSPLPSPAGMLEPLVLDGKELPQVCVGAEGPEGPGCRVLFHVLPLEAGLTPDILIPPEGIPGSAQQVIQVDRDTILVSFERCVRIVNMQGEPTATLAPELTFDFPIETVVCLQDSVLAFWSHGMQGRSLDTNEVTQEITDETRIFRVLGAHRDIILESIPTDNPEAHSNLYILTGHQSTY

[5] = target: GTP-binding nuclear protein Ran (Homo sapiens, UniProt P62826)
[6] = target: Glycogen synthase kinase-3 alpha (Homo sapiens, UniProt P49840)
[7] = target: Protein-tyrosine kinase 6 (Homo sapiens, UniProt Q13882)
[8] = target: T4, Ribosyldihydronicotinamide dehydrogenase [quinone] (Homo sapiens, UniProt P16083)
T4 sequence (P16083 whole entry): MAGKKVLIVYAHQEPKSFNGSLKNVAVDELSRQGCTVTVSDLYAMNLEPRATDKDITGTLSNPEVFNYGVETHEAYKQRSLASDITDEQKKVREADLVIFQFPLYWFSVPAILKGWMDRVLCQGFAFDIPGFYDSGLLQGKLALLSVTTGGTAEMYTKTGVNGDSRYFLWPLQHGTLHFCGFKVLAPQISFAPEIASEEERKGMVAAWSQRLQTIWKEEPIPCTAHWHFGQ

[9] = target: Serine/threonine-protein kinase MRCK gamma (Homo sapiens, UniProt Q6DT37)
Also: in the data inactive means no Kd found up to 30 µM.

Sequence of Fibroblast growth factor receptor 1 (P11362 whole entry): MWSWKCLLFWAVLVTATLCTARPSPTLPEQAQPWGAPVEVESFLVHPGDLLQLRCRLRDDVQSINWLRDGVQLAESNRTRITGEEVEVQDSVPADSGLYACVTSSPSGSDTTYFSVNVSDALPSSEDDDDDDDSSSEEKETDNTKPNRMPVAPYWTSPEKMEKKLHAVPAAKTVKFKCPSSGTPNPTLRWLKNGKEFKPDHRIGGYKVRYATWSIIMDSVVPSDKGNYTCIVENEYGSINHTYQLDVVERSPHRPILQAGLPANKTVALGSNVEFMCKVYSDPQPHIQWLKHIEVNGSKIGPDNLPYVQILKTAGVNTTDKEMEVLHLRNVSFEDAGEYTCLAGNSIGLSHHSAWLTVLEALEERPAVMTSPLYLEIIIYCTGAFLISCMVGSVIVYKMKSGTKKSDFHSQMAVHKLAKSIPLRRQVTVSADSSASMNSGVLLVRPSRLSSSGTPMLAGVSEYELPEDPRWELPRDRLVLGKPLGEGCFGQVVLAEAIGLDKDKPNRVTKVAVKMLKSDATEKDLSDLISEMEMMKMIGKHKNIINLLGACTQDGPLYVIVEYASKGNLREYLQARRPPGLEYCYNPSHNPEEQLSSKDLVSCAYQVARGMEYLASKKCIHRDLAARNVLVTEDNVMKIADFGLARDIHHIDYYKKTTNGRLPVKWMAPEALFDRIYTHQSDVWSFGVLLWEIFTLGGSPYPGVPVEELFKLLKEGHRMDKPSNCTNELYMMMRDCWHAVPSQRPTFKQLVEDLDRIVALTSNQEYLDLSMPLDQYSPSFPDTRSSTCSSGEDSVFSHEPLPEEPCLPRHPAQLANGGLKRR
Sequence of Serine/threonine-protein kinase MRCK gamma (Q6DT37 whole entry): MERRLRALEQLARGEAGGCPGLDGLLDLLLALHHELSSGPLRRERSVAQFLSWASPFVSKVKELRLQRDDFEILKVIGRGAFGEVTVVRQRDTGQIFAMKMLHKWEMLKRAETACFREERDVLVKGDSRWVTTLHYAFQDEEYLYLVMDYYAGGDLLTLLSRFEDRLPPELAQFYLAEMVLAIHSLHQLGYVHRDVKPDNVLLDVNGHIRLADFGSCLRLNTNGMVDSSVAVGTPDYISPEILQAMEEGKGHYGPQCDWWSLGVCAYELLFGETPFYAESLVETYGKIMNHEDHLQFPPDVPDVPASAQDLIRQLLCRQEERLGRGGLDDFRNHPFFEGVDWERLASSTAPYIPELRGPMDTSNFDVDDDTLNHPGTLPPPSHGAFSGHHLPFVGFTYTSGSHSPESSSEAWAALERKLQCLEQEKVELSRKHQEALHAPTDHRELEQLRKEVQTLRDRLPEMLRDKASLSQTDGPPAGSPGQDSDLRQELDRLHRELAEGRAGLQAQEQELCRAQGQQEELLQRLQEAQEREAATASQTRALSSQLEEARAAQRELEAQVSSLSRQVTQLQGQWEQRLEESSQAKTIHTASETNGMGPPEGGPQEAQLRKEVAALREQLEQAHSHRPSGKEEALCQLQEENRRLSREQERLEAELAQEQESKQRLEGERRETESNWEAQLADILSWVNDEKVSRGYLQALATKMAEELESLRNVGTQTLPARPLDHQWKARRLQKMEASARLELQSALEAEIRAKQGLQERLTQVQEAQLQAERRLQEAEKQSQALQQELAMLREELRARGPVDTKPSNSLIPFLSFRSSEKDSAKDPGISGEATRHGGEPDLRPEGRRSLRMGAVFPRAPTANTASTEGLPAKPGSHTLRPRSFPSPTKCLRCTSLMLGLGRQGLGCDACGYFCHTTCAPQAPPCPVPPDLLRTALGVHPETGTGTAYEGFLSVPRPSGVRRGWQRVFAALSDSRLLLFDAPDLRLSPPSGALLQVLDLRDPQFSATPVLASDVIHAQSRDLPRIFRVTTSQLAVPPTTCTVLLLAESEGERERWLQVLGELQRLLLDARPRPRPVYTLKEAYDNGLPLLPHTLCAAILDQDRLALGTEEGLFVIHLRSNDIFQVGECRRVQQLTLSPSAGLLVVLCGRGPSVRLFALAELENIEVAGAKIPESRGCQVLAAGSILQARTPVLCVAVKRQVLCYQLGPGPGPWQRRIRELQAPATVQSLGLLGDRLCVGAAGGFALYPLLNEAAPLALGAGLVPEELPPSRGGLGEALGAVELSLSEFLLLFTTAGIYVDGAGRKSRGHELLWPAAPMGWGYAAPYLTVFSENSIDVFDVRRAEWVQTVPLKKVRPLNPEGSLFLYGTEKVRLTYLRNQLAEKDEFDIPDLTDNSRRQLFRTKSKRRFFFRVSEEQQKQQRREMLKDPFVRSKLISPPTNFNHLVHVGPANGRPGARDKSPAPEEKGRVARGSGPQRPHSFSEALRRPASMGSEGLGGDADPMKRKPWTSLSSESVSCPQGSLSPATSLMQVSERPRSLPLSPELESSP
Sequence of Protein-tyrosine kinase 6 (Q13882 whole entry): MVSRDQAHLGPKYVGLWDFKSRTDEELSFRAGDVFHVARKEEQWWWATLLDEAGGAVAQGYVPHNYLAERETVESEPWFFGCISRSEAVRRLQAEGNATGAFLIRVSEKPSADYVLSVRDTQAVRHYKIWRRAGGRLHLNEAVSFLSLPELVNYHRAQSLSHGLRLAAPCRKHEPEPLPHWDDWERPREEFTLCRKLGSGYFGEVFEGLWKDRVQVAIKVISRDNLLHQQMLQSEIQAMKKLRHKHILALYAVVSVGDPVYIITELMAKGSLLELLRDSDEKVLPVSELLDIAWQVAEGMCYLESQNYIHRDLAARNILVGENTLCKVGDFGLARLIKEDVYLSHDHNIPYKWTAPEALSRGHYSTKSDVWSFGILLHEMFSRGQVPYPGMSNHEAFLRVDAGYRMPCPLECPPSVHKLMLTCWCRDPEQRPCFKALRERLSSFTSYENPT
Sequence of Glycogen synthase kinase-3 alpha (P49840 whole entry): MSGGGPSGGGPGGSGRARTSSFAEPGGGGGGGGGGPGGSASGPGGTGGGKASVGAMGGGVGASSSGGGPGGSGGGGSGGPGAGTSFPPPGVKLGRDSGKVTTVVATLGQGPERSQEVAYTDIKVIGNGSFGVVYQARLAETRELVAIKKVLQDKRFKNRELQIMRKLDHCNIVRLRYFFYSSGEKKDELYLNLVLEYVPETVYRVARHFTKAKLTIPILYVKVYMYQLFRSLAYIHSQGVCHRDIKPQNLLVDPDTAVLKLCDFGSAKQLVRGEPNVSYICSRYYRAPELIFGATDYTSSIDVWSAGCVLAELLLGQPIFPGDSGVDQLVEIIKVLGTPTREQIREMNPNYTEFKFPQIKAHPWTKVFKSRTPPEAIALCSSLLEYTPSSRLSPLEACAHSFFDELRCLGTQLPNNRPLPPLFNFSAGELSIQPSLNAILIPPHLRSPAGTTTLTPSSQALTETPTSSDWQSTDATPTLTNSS

| SMILES | Kd [1] | Kd [2] | Kd [3] | Kd [4] | Kd [5] | Kd [6] | Kd [7] | Kd [8] | Kd [9] | pKd [2] | pKd [1] |
| --- | --- | --- | --- | --- | --- | --- | --- | --- | --- | --- | --- |
| CCNC(=O)C#Cc1ccc2c(c1)NC(=O)/C2=C(\Nc1ccc(CN(C)C)cc1)c1ccccc1 | > 30 µM (inactive) | > 30 µM (inactive) | 2.51 µM (active) | > 30 µM (inactive) | > 30 µM (inactive) | > 30 µM (inactive) | > 30 µM (inactive) | > 30 µM (inactive) |  |  |  |
| Cc1nc2cc(-c3nn(C(C)C)c4ncnc(N)c34)ccc2o1 | > 30 µM (inactive) | > 30 µM (inactive) |  | 15.9 µM (active) | > 30 µM (inactive) | > 30 µM (inactive) | 2.1 µM (active) | > 30 µM (inactive) | > 30 µM (inactive) |  |  |
| COCc1c(-c2ccc(NC(=O)Nc3cc(C(F)(F)F)ccc3F)c(F)c2)c2c(N)ncnn2c1CN1CCOCC1 | > 30 µM (inactive) | > 30 µM (inactive) | 0.04 µM (active) | 4.16 µM (active) | > 30 µM (inactive) | > 30 µM (inactive) | > 30 µM (inactive) | > 30 µM (inactive) |  |  |  |
| COc1cc(Nc2ncc3c(n2)-c2ccc(Cl)cc2C(c2c(F)cccc2OC)=NC3)ccc1C(=O)O [ALISERTIB] | > 30 µM (inactive) |  |  |  | > 30 µM (inactive) |  |  | > 30 µM (inactive) | > 30 µM (inactive) | 6.20 |  |
| O=C(Nc1c[nH]nc1-c1nc2cc(CN3CCOCC3)ccc2[nH]1)NC1CC1 [AT-9283] | > 30 µM (inactive) | > 30 µM (inactive) |  | > 30 µM (inactive) | > 30 µM (inactive) | 0.006 µM (active) | 0.188 µM (active) | > 30 µM (inactive) | > 30 µM (inactive) |  |  |
| CNC(=O)c1ccccc1Sc1ccc2c(/C=C/c3ccccn3)n[nH]c2c1 [AXITINIB] | > 30 µM (inactive) | > 30 µM (inactive) |  |  | > 30 µM (inactive) |  |  | > 30 µM (inactive) |  |  |  |
| CC(C)(C)c1nc(-c2cccc(NS(=O)(=O)c3c(F)cccc3F)c2F)c(-c2ccnc(N)n2)s1 [DABRAFENIB] | > 30 µM (inactive) | > 30 µM (inactive) | > 30 µM (inactive) | > 30 µM (inactive) | > 30 µM (inactive) |  | 1.41 µM (active) | > 30 µM (inactive) | > 30 µM (inactive) |  |  |
| Cn1cc(C2=C(c3cn(C4CCN(Cc5ccccn5)CC4)c4ccccc34)C(=O)NC2=O)c2ccccc21 [ENZASTAURIN] | > 30 µM (inactive) | > 30 µM (inactive) |  |  | > 30 µM (inactive) |  |  | > 30 µM (inactive) |  |  |  |
| Cc1nc2cc(-n3ncc(C(=O)c4cc5ccccc5[nH]4)c3N)ccc2[nH]1 [FGFR INHIBITOR DEBIO 1347] |  | > 30 µM (inactive) |  | > 30 µM (inactive) | > 30 µM (inactive) | > 30 µM (inactive) | > 30 µM (inactive) | > 30 µM (inactive) | > 30 µM (inactive) |  |  |
| C[C@@H](Oc1cc(-n2cnc3ccc(CN4CCN(C)CC4)cc32)sc1C(N)=O)c1ccccc1C(F)(F)F [GSK-461364] | > 30 µM (inactive) | > 30 µM (inactive) |  |  | > 30 µM (inactive) |  |  | > 30 µM (inactive) |  |  |  |
| CCn1cc(-c2ccnc3[nH]c(-c4cccc(CN(C)C)c4)cc23)c(-c2ccc(NC(=O)N(C)C)cc2)n1 [GSK-1070916] | > 30 µM (inactive) | > 30 µM (inactive) |  | > 30 µM (inactive) | > 30 µM (inactive) | > 30 µM (inactive) | 8.19 µM (active) | > 30 µM (inactive) |  |  |  |
| O=C(Nc1cc(C(F)(F)F)cc(C(F)(F)F)c1)c1cc(Cl)ccc1O [IMD-0354] | > 30 µM (inactive) | > 30 µM (inactive) | > 30 µM (inactive) | > 30 µM (inactive) | > 30 µM (inactive) |  | > 30 µM (inactive) | > 30 µM (inactive) | > 30 µM (inactive) |  |  |
| Cc1[nH]c(/C=C2\C(=O)Nc3ccccc32)c(C)c1CCC(=O)O [ORANTINIB] | > 30 µM (inactive) | > 30 µM (inactive) |  |  | > 30 µM (inactive) |  |  | > 30 µM (inactive) | > 30 µM (inactive) |  |  |
| NC(=O)c1c(OCc2c(F)cc(Br)cc2F)nsc1NC(=O)NCCCCN1CCCC1 [OSI-632] | > 30 µM (inactive) | > 30 µM (inactive) |  |  | > 30 µM (inactive) |  |  | > 30 µM (inactive) | > 30 µM (inactive) |  |  |
| CCCCCCCCCCCCCCCCCCOP(=O)([O-])OC1CC[N+](C)(C)CC1 [PERIFOSINE] | > 30 µM (inactive) | > 30 µM (inactive) | > 30 µM (inactive) | > 30 µM (inactive) | > 30 µM (inactive) | > 30 µM (inactive) | > 30 µM (inactive) | > 30 µM (inactive) |  |  |  |
| CC(=O)NCC(=O)N1[C@@H]2CC[C@H]1c1ccc(Nc3ncc(C(F)(F)F)c(NC4CCC4)n3)cc12 [PF-03814735] | > 30 µM (inactive) | > 30 µM (inactive) |  |  | > 30 µM (inactive) |  |  | > 30 µM (inactive) | > 30 µM (inactive) |  |  |
| CNC(=O)c1cc(Oc2ccc(NC(=O)Nc3cc(C(C)(C)C)nn3-c3ccc4ncccc4c3)c(F)c2)ccn1 [REBASTINIB] | > 30 µM (inactive) |  |  | 1.06 µM (active) | > 30 µM (inactive) | > 30 µM (inactive) |  | > 30 µM (inactive) | > 30 µM (inactive) |  |  |
| O=C(NOCCO)c1cc(CN2OCCCC2=O)c(F)c(F)c1Nc1ccc(I)cc1F [RO-4987655] | > 30 µM (inactive) | > 30 µM (inactive) |  |  | > 30 µM (inactive) |  |  | > 30 µM (inactive) |  |  |  |
| N#CC[C@H](C1CCCC1)n1cc(-c2ncnc3[nH]ccc23)cn1 [RUXOLITINIB] |  | > 30 µM (inactive) |  |  | > 30 µM (inactive) |  |  | > 30 µM (inactive) |  |  | 5.44 |
| CC(C)c1cc(CNc2nc(Nc3cc(C4CC4)[nH]n3)cc(N3CCN(C)CC3)n2)on1 [XL-228] | > 30 µM (inactive) | > 30 µM (inactive) | 0.009 µM (active) | 0.352 µM (active) | > 30 µM (inactive) | > 30 µM (inactive) | > 30 µM (inactive) | > 30 µM (inactive) |  |  |  |
| C[C@@H](N)c1ccc(C(=O)Nc2ccnc3[nH]ccc23)cc1 [Y-39983] | > 30 µM (inactive) | > 30 µM (inactive) | > 30 µM (inactive) | > 30 µM (inactive) | > 30 µM (inactive) | 1.1 µM (active) | > 30 µM (inactive) | > 30 µM (inactive) |  |  |  |
